Test results as given in PubChem BioAssay AID602444 (National Center for Advancing Translational Sciences (NCATS), 2012).

System: mouse liver microsomes without NADPH, percent remaining
Test: High Content Assay for Compounds that inhibit the Assembly of the Perinucleolar Compartment: Mouse Liver Microsome Stability without NADPH
Conditions: active compounds read low
From the text: The perinucleolar compartment (PNC) is a non-membrane-bound nuclear subdomain that is associated with but structurally distinct from the nucleolus. The PNC is a heritable trait, in which the number of PNCs per cell in daughter cells often mimics that of their mother cells. The PNC is heterogeneous in shape, is stable through interphase, disassembles during mitosis, and reassembles in early G1. The PNC is concentrated with newly synthesized RNA polymerase III (pol III) RNAs (MRP RNA, RNAse P H1 RNA, hY RNAs[hY1, 2, 5], Alu RNA, and SRP [7SL] RNA) and RNA binding proteins (nucleolin, PTB, CUG-BP, KSRP, Raver1, Raver2, and Rod).
Extensive in vitro studies have shown that the PNC is unique to tumor cells and preferentially forms in tumor cells derived from solid tissues. Examination of cancer cell lines from various origins and malignant capacities has shown that PNC prevalence correlates with the malignancy of tumors and has the potential to be developed as a pan-cancer prognostic marker.
Mouse liver microsomes are generated from lysed mouse liver. Liver microsomes contain many drug metabolizing enzymes, including Cytochome P-450s and flavin-containing monooxygenases. Because drug metabolism is major way of drug clearance, this is an important result. […]
1uM of compound in incubated in mouse liver microsome; the reference compound is ketanserin. […] Samples are analyzed with LC-MS/MS.

`N=c1c2c(-c3ccccc3)c(-c3ccccc3)n(Cc3ccccc3)c2ncn1C1CCC(O)CC1` (stereo unspecified) gave a percent remaining of 106%.
